Test results published in US20230416258A1, “BENZ[…], AND PREPARATION METHOD THEREFOR AND USE THEREOF” (CHINA PHARMACEUTICAL UNIVERSITY, priority 2020, published 2023).

Test system: KM mice
Experiment: Test for drug-induced disappearance of righting reflex in mice
Type: in vivo
Details: single rapid bolus via tail vein
Text: In anesthetic drug experiments, latency generally refers to the time from the start of administration to the loss of consciousness of the subject. The shorter latency is preferred, indicating a rapid onset of action after administration. The duration of anesthesia generally refers to the duration of time from the loss of consciousness to the restoration of consciousness of the subject. The duration of the drug will vary from animal model to animal species. Too long anesthesia may produce adverse cardiovascular and respiratory responses, such as adverse neurological effects to the subject, including sleepiness and dizziness; meanwhile, too short duration of anesthesia may affect the anesthesia effect, causing problems such as increase of anesthesia dosage during the operation.
KM mice (female, 18-25 g) were randomly grouped and subjected to a single administration by rapid bolus via the tail vein. The latency and duration of disappearance of righting reflex in the mice were recorded.

| Structure (SMILES) | Duration (30 mg/kg) | Latency (30 mg/kg) | Duration (60 mg/kg) | Latency (60 mg/kg) |
| --- | --- | --- | --- | --- |
| CCCSc1nnc2n1-c1ccc([N+](=O)[O-])cc1C(c1ccccc1F)=N[C@H]2CCC(=O)OC [Compound 16, methyl (S)-3-(8-nitro-6-(2-fluorophenyl)-1-(propylthio)-4H-benzo[f][1,2,4]triazolo[4,3-a][1,4]diazepin-4-yl)propionate] | 6.25 min | 0.79 min | 6.6 min | 0.28 min |
| COC(=O)CC[C@@H]1N=C(c2ccccc2F)c2cc(Cl)ccc2-n2c(SCCO)nnc21 [Compound 17, methyl (S)-3-(8-chloro-6-(2-fluorophenyl)-1-((2-hydroxyethyl)thio)-4H-benzo[f][1,2,4]triazolo[4,3-a][1,4]diazepin-4-yl)propionate] | 15.35 min | 1.09 min |  |  |
| COC(=O)CC[C@@H]1N=C(c2ccccc2F)c2cc(Br)ccc2-n2c(SCCO)nnc21 [Compound 18, methyl (S)-3-(8-bromo-6-(2-fluorophenyl)-1-((2-hydroxyethyl)thio)-4H-benzo[f][1,2,4]triazolo[4,3-a][1,4]diazepin-4-yl)propionate] | 4.74 min | 0.31 min | 9.16 min | 0.33 min |
| COC(=O)CC[C@@H]1N=C(c2ccccc2F)c2cc([N+](=O)[O-])ccc2-n2c(SCCO)nnc21 [Compound 19, methyl (S)-3-(8-nitro-6-(2-fluorophenyl)-1-((2-hydroxyethyl)thio)-4H-benzo[f][1,2,4]triazolo[4,3-a][1,4]diazepin-4-yl)propionate] | 16.22 min | 0.89 min |  |  |
| COC(=O)CC[C@@H]1N=C(c2ccccc2F)c2cc(Cl)ccc2-n2c(SCCN)nnc21 [Compound 20, methyl (S)-3-(8-chloro-6-(2-fluorophenyl)-1-((2-aminoethyl)thio)-4H-benzo[f][1,2,4]triazolo[4,3-a][1,4]diazepin-4-yl)propionate] | 9.82 min | 0.27 min |  |  |
| COC(=O)CC[C@@H]1N=C(c2ccccc2F)c2cc(Br)ccc2-n2c(SCCN)nnc21 [Compound 21, methyl (S)-3-(8-bromo-6-(2-fluorophenyl)-1-((2-aminoethyl)thio)-4H-benzo[f][1,2,4]triazolo[4,3-a][1,4]diazepin-4-yl)propionate] | 2.83 min | 0.35 min | 6.4 min | 0.2 min |
| COC(=O)CC[C@@H]1N=C(c2ccccc2F)c2cc([N+](=O)[O-])ccc2-n2c(SCCN)nnc21 [Compound 22, methyl (S)-3-(8-nitro-6-(2-fluorophenyl)-1-((2-aminoethyl)thio)-4H-benzo[f][1,2,4]triazolo[4,3-a][1,4]diazepin-4-yl)propionate] | 6.53 min | 0.58 min |  |  |
| CCSc1nnc2n1-c1ccc(Br)cc1C(c1ccccc1Cl)=N[C@H]2CCC(=O)OC [Compound 27, methyl (S)-3-(8-bromo-6-(2-chlorophenyl)-1-(ethylthio)-4H-benzo[f][1,2,4]triazolo[4,3-a][1,4]diazepin-4-yl)propionate] | 5.93 min | 0.35 min |  |  |
| CCSc1nnc2n1-c1ccc([N+](=O)[O-])cc1C(c1ccccc1Cl)=N[C@H]2CCC(=O)OC [Compound 28, methyl (S)-3-(8-nitro-6-(2-chlorophenyl)-1-(ethylthio)-4H-benzo[f][1,2,4]triazolo[4,3-a][1,4]diazepin-4-yl)propionate] |  |  | 4.24 min | 0.46 min |
| CCCSc1nnc2n1-c1ccc([N+](=O)[O-])cc1C(c1ccccc1Cl)=N[C@H]2CCC(=O)OC [Compound 31, methyl (S)-3-(8-nitro-6-(2-chlorophenyl)-1-(propylthio)-4H-benzo[f][1,2,4]triazolo[4,3-a][1,4]diazepin-4-yl)propionate] | 8.98 min | 2.85 min |  |  |
